In US8410112B2, “Compounds useful as inhibitors of ATR kinase” (Vertex Pharmaceuticals Incorporated, priority 2008, dated 2013) one finds Ki data, which are given here for 34 compounds.

For this assay, the target named is T1, full-length ATR (Homo sapiens, UniProt Q13535).
T1 construct: in the presence of 5 nM full-length ATR
T1 sequence (Q13535 whole entry): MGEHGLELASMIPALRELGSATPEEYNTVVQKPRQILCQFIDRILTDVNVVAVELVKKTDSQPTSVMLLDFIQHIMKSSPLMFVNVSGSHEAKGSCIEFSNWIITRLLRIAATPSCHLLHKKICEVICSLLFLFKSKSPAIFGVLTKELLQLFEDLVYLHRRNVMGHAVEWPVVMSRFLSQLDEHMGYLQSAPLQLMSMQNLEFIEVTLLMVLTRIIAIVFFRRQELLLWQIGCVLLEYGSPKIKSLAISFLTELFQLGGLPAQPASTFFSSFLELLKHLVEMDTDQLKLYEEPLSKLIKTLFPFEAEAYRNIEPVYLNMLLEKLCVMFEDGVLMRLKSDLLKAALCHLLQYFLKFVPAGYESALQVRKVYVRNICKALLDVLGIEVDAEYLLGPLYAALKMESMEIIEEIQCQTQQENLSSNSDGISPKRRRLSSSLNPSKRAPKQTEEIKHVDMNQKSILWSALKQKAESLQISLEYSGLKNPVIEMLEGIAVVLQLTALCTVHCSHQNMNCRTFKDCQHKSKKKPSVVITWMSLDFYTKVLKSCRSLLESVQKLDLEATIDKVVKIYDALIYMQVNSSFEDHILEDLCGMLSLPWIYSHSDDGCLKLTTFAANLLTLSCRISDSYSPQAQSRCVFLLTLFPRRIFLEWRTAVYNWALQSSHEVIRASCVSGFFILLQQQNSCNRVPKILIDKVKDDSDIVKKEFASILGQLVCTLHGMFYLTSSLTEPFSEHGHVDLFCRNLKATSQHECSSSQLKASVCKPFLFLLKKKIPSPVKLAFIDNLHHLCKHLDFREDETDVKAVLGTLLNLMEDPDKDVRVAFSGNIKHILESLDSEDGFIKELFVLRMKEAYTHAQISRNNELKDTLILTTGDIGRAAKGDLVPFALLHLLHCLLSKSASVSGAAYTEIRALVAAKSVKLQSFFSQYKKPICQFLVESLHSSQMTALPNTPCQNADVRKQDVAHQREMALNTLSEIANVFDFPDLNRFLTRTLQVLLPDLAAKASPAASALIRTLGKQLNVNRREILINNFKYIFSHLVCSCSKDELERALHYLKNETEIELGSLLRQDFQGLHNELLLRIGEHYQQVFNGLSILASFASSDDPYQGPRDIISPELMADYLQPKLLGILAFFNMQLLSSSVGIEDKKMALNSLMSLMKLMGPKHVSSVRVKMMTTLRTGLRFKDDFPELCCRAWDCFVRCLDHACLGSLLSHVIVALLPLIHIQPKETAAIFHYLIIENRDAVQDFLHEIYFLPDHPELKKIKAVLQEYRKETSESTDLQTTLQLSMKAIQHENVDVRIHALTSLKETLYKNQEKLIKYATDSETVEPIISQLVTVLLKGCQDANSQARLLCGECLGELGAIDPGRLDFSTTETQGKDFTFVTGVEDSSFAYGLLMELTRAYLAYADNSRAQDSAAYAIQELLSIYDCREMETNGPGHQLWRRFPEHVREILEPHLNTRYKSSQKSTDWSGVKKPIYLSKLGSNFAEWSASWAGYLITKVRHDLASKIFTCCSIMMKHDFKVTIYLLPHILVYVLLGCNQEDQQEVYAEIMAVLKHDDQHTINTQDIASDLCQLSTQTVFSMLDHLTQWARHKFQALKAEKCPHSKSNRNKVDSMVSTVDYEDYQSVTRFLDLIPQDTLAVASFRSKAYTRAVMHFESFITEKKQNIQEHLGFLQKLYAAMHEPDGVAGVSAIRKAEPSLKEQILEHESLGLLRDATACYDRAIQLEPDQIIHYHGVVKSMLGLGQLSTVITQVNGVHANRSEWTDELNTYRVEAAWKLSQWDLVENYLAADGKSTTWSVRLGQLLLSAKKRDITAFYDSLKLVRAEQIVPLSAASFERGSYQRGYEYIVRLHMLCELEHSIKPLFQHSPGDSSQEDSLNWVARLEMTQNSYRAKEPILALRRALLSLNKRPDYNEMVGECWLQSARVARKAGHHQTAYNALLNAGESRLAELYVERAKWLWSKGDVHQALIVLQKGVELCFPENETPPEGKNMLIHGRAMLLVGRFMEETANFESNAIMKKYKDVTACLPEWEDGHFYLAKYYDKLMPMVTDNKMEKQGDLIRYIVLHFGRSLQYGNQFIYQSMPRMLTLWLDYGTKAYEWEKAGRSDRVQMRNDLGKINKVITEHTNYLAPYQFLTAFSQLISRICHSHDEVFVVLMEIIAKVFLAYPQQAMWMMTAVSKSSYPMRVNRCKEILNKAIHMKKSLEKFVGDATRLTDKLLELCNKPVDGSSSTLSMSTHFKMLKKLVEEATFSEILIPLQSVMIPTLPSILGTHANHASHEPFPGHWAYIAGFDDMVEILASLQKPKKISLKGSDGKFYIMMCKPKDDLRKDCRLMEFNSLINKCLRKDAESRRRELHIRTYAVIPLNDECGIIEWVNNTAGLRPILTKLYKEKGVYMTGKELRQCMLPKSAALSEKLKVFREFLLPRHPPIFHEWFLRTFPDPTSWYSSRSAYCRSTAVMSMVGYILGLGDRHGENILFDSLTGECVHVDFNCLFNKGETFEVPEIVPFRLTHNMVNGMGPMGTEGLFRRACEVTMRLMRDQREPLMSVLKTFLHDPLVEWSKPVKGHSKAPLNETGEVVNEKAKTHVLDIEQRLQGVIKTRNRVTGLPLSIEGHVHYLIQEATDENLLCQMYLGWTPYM
The assay can be described thus: ATR Inhibition Assay (radioactive-phosphate incorporation). The class given is biochemical. The note with it: Ki(app); 5 nM full-length ATR, 10 μM ATP, 800 μM target peptide, 25° C. The method in brief:
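Buffer was 50 mM Tris/HCl pH 7.5, 10 mM MgCl2, 1 mM DTT, with 5 nM enzyme, 10 μM [γ-33P]ATP and 800 μM target peptide at 25 °C. Compound was pre-incubated 10 min before ATP start, and the reaction was stopped after 24 h. Phosphocellulose filter capture; Ki(app) came from non-linear regression of background-corrected initial rates.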
`CCS(=O)(=O)N1CC=C(c2cnc(N)c(-c3nc4cc(C)c(C)cc4[nH]3)n2)CC1` [Compound I-154, 3-(5,6-dimethyl-1H-benzo[d]imidazol-2-yl)-5-(1-(ethylsulfonyl)-1,2,3,6-tetrahydropyridin-4-yl)pyrazin-2-amine]: the Ki is 100 to 1000 nM. Take `CCS(=O)(=O)N1CC2CN(c3cnc(N)c(-c4nnc(-c5ccccc5)o4)n3)CC2C1` (stereo not shown) [Compound I-305, 5-(2-ethylsulfonyl-1,3,3a,4,6,6a-hexahydropyrrolo[3,4-c]pyrrol-5-yl)-3-(5-phenyl-1,3,4-oxadiazol-2-yl)pyrazin-2-amine]: the Ki is 100 to 1000 nM. Turning to `CNCc1ccc(-c2nnc(-c3nc(C4CC4C(=O)N4CC[C@@H](N)C4)cnc3N)o2)cc1` (stereo partly drawn) [Compound I-374, (2-(5-Amino-6-(5-(4-((methylamino)methyl)phenyl)-1,3,4-oxadiazol-2-yl)pyrazin-2-yl)cyclopropyl)((R)-3-aminopyrrolidin-1-yl)methanone], the Ki was 1000 to 10000 nM. Take `Nc1ncc(C2=CCNCC2)nc1-c1nnc(-c2ccccc2)o1` [Compound I-41, 3-(5-phenyl-1,3,4-oxadiazol-2-yl)-5-(1,2,3,6-tetrahydropyridin-4-yl)pyrazin-2-amine]: the Ki was in the range of 100 to 1000 nM.

As to `Nc1ncc(C2=CCN(S(=O)(=O)c3ccsc3)CC2)nc1-c1nnc(-c2ccccc2)o1` [Compound I-121, 3-(5-phenyl-1,3,4-oxadiazol-2-yl)-5-(1-(thiophen-3-ylsulfonyl)-1,2,3,6-tetrahydropyridin-4-yl)pyrazin-2-amine], the Ki was below 100 nM. Turning to `CC(C)C(=O)N1CCN(c2cnc(N)c(-c3nnc(-c4ccccc4)o3)n2)CC1` [Compound I-190, 1-(4-(5-amino-6-(5-phenyl-1,3,4-oxadiazol-2-yl)pyrazin-2-yl)piperazin-1-yl)-2-methylpropan-1-one], the Ki lay within 100 to 1000 nM. Then `Nc1ncc(N2CCN(S(=O)(=O)c3ccccc3)CC2)nc1-c1nc2ccccc2[nH]1` [Compound I-110, 3-(1H-benzo[d]imidazol-2-yl)-5-(4-(phenylsulfonyl)piperazin-1-yl)pyrazin-2-amine], with 100 to 1000 nM.

In the case of `Nc1ncc(C2=CCN(C(=O)N3CCCCC3)CC2)nc1-c1nnc(-c2ccccc2)o1` [Compound I-236, (4-(5-amino-6-(5-phenyl-1,3,4-oxadiazol-2-yl)pyrazin-2-yl)-5,6-dihydropyridin-1(2H)-yl)(piperidin-1-yl)methanone], the Ki is below 100 nM.

Turning to `Cc1ccc2nc(-c3nc(N4CCC(=O)CC4)cnc3N)[nH]c2c1` [Compound I-11, 1-(5-amino-6-(6-methyl-1H-benzo[d]imidazol-2-yl)pyrazin-2-yl)piperidin-4-one], the Ki lay in the range of 1000 to 10000 nM.

For the compound `CC(=O)N[C@H]1CCN(c2cnc(N)c(-c3nc4ccc(C)cc4[nH]3)n2)C1` [Compound I-4, (S)-N-(1-(5-amino-6-(6-methyl-1H-benzo[d]imidazol-2-yl)pyrazin-2-yl)pyrrolidin-3-yl)ethanamide], the Ki was 100 to 1000 nM. Turning to `CCS(=O)(=O)N1CCN(c2cnc(N)c(-c3nnc(-c4ccccc4F)o3)n2)CC1` [Compound I-299, 5-(4-ethylsulfonylpiperazin-1-yl)-3-[5-(2-fluorophenyl)-1,3,4-oxadiazol-2-yl]pyrazin-2-amine], the Ki fell in the range of 100 to 1000 nM.

`CCC(=O)N1CC=C(c2cnc(N)c(-c3nc4ccccc4[nH]3)n2)CC1` [Compound I-309, 1-[4-[5-amino-6-(1H-benzimidazol-2-yl)pyrazin-2-yl]-3,6-dihydro-2H-pyridin-1-yl]propan-1-one]: the Ki is below 100 nM. As for `Nc1ncc(N2CCN(S(=O)(=O)c3ccoc3)CC2)nc1C(=O)Nc1ccccn1` [Compound I-119, 3-amino-6-(4-(furan-3-ylsulfonyl)piperazin-1-yl)-N-(pyridin-2-yl)pyrazine-2-carboxamide], the Ki fell in the range of 100 to 1000 nM.

In the case of `CC(C)C(=O)N1CCN(c2cnc(N)c(C(=O)Nc3ccccn3)n2)CC1` [Compound I-68, 3-amino-6-(4-(2-methylpropanoyl)piperazin-1-yl)-N-(pyridin-2-yl)pyrazine-2-carboxamide], the Ki lay within 100 to 1000 nM. As for `CN(C)C(=O)N1CCN(c2cnc(N)c(-c3nnc(-c4ccccc4)o3)n2)CC1` [Compound I-218, 4-(5-amino-6-(5-phenyl-1,3,4-oxadiazol-2-yl)pyrazin-2-yl)-N,N-dimethylpiperazine-1-carboxamide], the Ki is 100 to 1000 nM. In the case of `CCS(=O)(=O)N1CCN(c2cnc(N)c(-c3ncc(-c4ccccc4)o3)n2)CC1` [Compound I-36, 5-(4-(ethylsulfonyl)piperazin-1-yl)-3-(5-phenyloxazol-2-yl)pyrazin-2-amine] it was 100 to 1000 nM; in that of `CCC(=O)NC1CCN(c2cnc(N)c(-c3nnc(-c4ccc(CNC)cc4)o3)n2)CC1` [Compound I-366, N-(1-(5-Amino-6-(5-(4-((methylamino)methyl)phenyl)-1,3,4-oxadiazol-2-yl)pyrazin-2-yl)piperidin-4-yl)propionamide], 100 to 1000 nM; in that of `CCC(=O)NC1CC=C(c2cnc(N)c(-c3nnc(-c4ccc(CNC)cc4)o3)n2)CC1` (stereo not shown) [Compound I-367, N-(4-(5-Amino-6-(5-(4-((methylamino)methyl)phenyl)-1,3,4-oxadiazol-2-yl)pyrazin-2-yl)cyclohex-3-enyl)propionamide], below 100 nM. For the compound `CCOC(=O)N1CC=C(c2cnc(N)c(-c3nc4ccccc4[nH]3)n2)CC1` [Compound I-250, ethyl 4-(5-amino-6-(1H-benzo[d]imidazol-2-yl)pyrazin-2-yl)-5,6-dihydropyridine-1(2H)-carboxylate], the Ki lay in the range of 100 to 1000 nM. Regarding `CN(C)C(=O)N1CC=C(c2cnc(N)c(-c3nnc(-c4ccccc4)o3)n2)CC1` [Compound I-220, 4-(5-amino-6-(5-phenyl-1,3,4-oxadiazol-2-yl)pyrazin-2-yl)-N,N-dimethyl-5,6-dihydropyridine-1(2H)-carboxamide], the Ki was below 100 nM. On to `Nc1ncc(C2=CCN(c3ccccc3)CC2)nc1-c1nc2ccccc2[nH]1` [Compound I-159, 3-(1H-benzo[d]imidazol-2-yl)-5-(1-phenyl-1,2,3,6-tetrahydropyridin-4-yl)pyrazin-2-amine], for which the Ki lay in the range of 100 to 1000 nM. In the case of `Cc1cccc(C)c1C(=O)N1CC=C(c2cnc(N)c(-c3nc4ccccc4[nH]3)n2)CC1` [Compound I-263, (4-(5-amino-6-(1H-benzo[d]imidazol-2-yl)pyrazin-2-yl)-5,6-dihydropyridin-1(2H)-yl)(2,6-dimethylphenyl)methanone] it was below 100 nM; in that of `CCS(=O)(=O)N1CC=C(c2cnc(N)c(C(=O)Nc3cnccn3)n2)CC1` [Compound I-170, 3-amino-6-(1-(ethylsulfonyl)-1,2,3,6-tetrahydropyridin-4-yl)-N-(pyrazin-2-yl)pyrazine-2-carboxamide], 100 to 1000 nM. As to `CCS(=O)(=O)N1CC=C(c2cnc(N)c(C(=O)Nc3cc(C)nn3C)n2)CC1` [Compound I-168, 3-amino-N-(1,3-dimethyl-1H-pyrazol-5-yl)-6-(1-(ethylsulfonyl)-1,2,3,6-tetrahydropyridin-4-yl)pyrazine-2-carboxamide], the Ki was 100 to 1000 nM. Then `Nc1ncc(C2=CCN(C(=O)COc3ccccc3)CC2)nc1-c1nnc(-c2ccccc2)o1` [Compound I-126, 1-(4-(5-amino-6-(5-phenyl-1,3,4-oxadiazol-2-yl)pyrazin-2-yl)-5,6-dihydropyridin-1(2H)-yl)-2-phenoxyethanone], with below 100 nM. With `CC(=O)C1(c2ccccc2)CCN(c2cnc(N)c(-c3nc4ccc(C)cc4[nH]3)n2)CC1` [Compound I-44, 1-(1-(5-amino-6-(6-methyl-1H-benzo[d]imidazol-2-yl)pyrazin-2-yl)-4-phenylpiperidin-4-yl)ethanone], the Ki was 1000 to 10000 nM. With `CC(=O)N1CC=C(c2cnc(N)c(-c3nnc(-c4ccccc4)o3)n2)CC1` [Compound I-125, 1-(4-(5-amino-6-(5-phenyl-1,3,4-oxadiazol-2-yl)pyrazin-2-yl)-5,6-dihydropyridin-1(2H)-yl)ethanone], the Ki is below 100 nM.

For `Cc1ccc2nc(-c3nc(N4CCCC(N(C)C)C4)cnc3N)[nH]c2c1` (stereo not shown) [Compound I-51, 5-(3-(dimethylamino)piperidin-1-yl)-3-(6-methyl-1H-benzo[d]imidazol-2-yl)pyrazin-2-amine], the Ki fell in the range of 1000 to 10000 nM.

Consider `CCS(=O)(=O)N1CCN(c2cnc(N)c(-c3cc4ccccc4[nH]3)n2)CC1` [Compound I-61, 5-(4-(ethylsulfonyl)piperazin-1-yl)-3-(1H-indol-2-yl)pyrazin-2-amine], for which the Ki fell in the range of 1000 to 10000 nM.

Turning to `Nc1ncc(C2=CCNCC2)nc1-c1nc2ccccc2[nH]1` [Compound I-66, 3-(1H-benzo[d]imidazol-2-yl)-5-(1,2,3,6-tetrahydropyridin-4-yl)pyrazin-2-amine], the Ki fell in the range of 100 to 1000 nM. Consider `Nc1ncc(N2CCN(C(=O)c3cccnc3)CC2)nc1-c1nnc(-c2ccccc2)o1` [Compound I-183, (4-(5-amino-6-(5-phenyl-1,3,4-oxadiazol-2-yl)pyrazin-2-yl)piperazin-1-yl)(pyridin-3-yl)methanone], for which the Ki lay in the range of 100 to 1000 nM. For `CCS(=O)(=O)N1CC=C(c2cnc(N)c(-c3nc4ccccc4[nH]3)n2)CC1` [Compound I-71, 3-(1H-benzo[d]imidazol-2-yl)-5-(1-(ethylsulfonyl)-1,2,3,6-tetrahydropyridin-4-yl)pyrazin-2-amine], the Ki was below 100 nM. With `CC(=O)N1CCN(c2cnc(N)c(-c3nnc(-c4ccccc4)o3)n2)CC1` [Compound I-180, 1-(4-(5-amino-6-(5-phenyl-1,3,4-oxadiazol-2-yl)pyrazin-2-yl)piperazin-1-yl)ethanone], the Ki fell in the range of 100 to 1000 nM. Regarding `Nc1ncc(N2CCN(C(=O)N3CCCCC3)CC2)nc1-c1nc2ccccc2[nH]1` [Compound I-270, (4-(5-amino-6-(1H-benzo[d]imidazol-2-yl)pyrazin-2-yl)piperazin-1-yl)(piperidin-1-yl)methanone], the Ki was 1000 to 10000 nM.
